As a reminder, the IC50 is the concentration that gives 50% inhibition. The term inhibition denotes the percentage by which the read-out fell short of the control.

Our source for the Activity, IC50 and inhibition values is ChEMBL document CHEMBL1147993, “Inhibitory effect of obovatal on the migration and invasion of HT1080 cells via the inhibition of MMP-2” (Bioorg Med Chem, 2007).

The subject of data set [1] is HT-1080. Kind of data set: Inhibition of migration of HT1080 cells at 20 uM by wound healing assay. Type of data set: functional, cell-based. Conditions: Homo sapiens.
Another data set has as its system HCT-116. Put plainly: Growth inhibition of HCT116 cells up to 50 uM after 48 hrs by WST1 reduction assay. Type of data set: functional, cell-based. Conditions: Homo sapiens. Background: Tetrazolium assays rely on reduction of a dye to a coloured formazan, in cell work by metabolically active cells.
Data set [2] addresses T1, 72 kDa type IV collagenase (Homo sapiens, UniProt P08253). Put plainly: Inhibition of MMP2 expressed in insect cells.
Target sequence in this assay (P08253 whole entry): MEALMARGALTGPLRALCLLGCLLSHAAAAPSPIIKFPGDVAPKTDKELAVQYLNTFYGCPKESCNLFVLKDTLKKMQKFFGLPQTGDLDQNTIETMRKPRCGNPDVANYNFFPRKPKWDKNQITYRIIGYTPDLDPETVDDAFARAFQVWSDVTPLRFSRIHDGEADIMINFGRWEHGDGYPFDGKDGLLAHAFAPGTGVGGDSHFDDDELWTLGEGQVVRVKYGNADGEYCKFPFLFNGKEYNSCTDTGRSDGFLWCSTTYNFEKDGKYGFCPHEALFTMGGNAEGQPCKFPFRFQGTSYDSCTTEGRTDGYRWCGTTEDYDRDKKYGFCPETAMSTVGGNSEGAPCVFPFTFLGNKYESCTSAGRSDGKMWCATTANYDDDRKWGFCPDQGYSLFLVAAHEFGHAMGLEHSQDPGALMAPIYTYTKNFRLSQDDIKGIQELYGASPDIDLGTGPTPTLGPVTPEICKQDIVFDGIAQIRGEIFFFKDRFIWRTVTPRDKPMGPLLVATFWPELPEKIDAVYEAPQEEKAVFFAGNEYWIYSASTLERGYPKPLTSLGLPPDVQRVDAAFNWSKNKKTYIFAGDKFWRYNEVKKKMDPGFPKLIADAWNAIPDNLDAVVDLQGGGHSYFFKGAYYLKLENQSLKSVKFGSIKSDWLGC
For data set [3], the system named is HT-1080. Put plainly: Reduction of MMP2 mRNA expression in HT1080 cells at 20 uM by RT-PCR. Type of data set: functional, Homo sapiens. On the set-up: scale not given: the % may be the effect or the level left.
A further data set has as its system HFF. Kind of data set: Effect on growth of HFF cells after 48 hrs by WST1 reduction assay. Conditions: human. Type of data set: cell-based.
Data set [4] deals with HT-1080. Kind of data set: Reduction of MMP2 protein expression in HT1080 cells at 20 uM ny Western blot. On the set-up: scale not given: the % may be the effect or the level left. It is filed as functional, Homo sapiens.
The target in data set [5] is T1, 72 kDa type IV collagenase. Kind of data set: Inhibition of MMP2 in HT1080 cells at 15 uM by gelatin zymography assay. Type of data set: cell-based. Conditions: HT-1080.
Target sequence in this assay (P08253 110-660 limits assumed): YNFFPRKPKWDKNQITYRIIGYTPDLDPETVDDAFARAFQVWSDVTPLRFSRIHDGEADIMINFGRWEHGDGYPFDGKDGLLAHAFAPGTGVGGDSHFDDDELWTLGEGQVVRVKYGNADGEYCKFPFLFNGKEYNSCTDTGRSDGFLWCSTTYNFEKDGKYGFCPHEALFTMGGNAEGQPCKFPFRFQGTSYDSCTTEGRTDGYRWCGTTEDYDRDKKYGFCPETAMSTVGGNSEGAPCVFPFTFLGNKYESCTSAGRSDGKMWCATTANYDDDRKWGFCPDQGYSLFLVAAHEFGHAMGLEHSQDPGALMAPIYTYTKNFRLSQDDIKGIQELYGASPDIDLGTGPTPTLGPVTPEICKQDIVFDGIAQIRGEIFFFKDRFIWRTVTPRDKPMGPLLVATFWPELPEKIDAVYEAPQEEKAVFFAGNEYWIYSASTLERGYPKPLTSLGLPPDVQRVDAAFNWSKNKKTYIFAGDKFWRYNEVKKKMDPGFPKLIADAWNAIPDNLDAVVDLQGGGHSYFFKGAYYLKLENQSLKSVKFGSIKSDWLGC
In data set [6] the test system is HT-1080. Kind of data set: Inhibition of invasion of HT1080 cells at 20 uM after 24 hrs by Matrigel invasion assay relative to control. Type of data set: functional. Conditions: Homo sapiens, HT-1080, 24 h.

SMILES strings stand for the structures. Calls of active or inactive are those of the source. The rule behind the calls is not given here.

For the compound `C=CCc1ccc(Oc2cc(/C=C/C=O)cc(O)c2O)cc1` [OBOVATAL], the result (in the data set on HT-1080 [1]; in the data set on HCT-116; in data set [5]) was Active. For the same compound, the IC50 in data set [2] is 800 nM. Besides, the figures for the Activity in the data set with HT-1080 [3], with HFF and with HT-1080 [4] were 70%, “Non-toxic” and 70%, respectively. Also, in the data set with HT-1080 [6], the inhibition at 20 µM was found to be 70%.
